The source of these data is ChEMBL document CHEMBL5150000, “Insights on Dengue and Zika NS5 RNA-dependent RNA polymerase (RdRp) inhibitors” (Eur J Med Chem, 2021).

The subject of series [1] is HepG2. As to the kind of experiment: Cytotoxicity against human HepG2 cells.
Series [2] relates to THP-1. As to the kind of experiment: Cytotoxicity against human THP-1 cells.
In series [3] the test system is Dengue virus. As to the kind of experiment: Antiviral activity against DENV RNA-dependent RNA polymerase infected in human PBMC. It is filed as functional, organism-based.
A short description of series [4]: Inhibition of Dengue virus RNA N7 methyltransferase.
Series [5] can be described thus: Inhibition of Zika virus RNA N7 methyltransferase.
For series [6], the system named is Dengue virus. As to the kind of experiment: Antiviral activity DENV infected in African green monkey Vero 76 cells assessed as virus-induced cytopathic effect. The series is classed as functional, organism-based. Background: Damage to the host cells serves as the signal in cytopathic effect assays.
The nature of series [7]: Binding affinity to DENV RNA-dependent RNA polymerase assessed as dissociation constant. Details: species or system Dengue virus.
Series [8] can be described thus: Cytotoxicity against African green monkey Vero cells incubated for 4 hrs by Cell-titer glo assay. It is filed as toxicity, cell-based. As to conditions: chlorocebus sabaeus.
Series [9] has as its system Zika virus. As to the kind of experiment: Antiviral activity against Zika virus RNA-dependent RNA polymerase infected in African green monkey Vero cells. It is filed as functional, organism-based.
Series [10] in a line: Selectivity index, ratio of CC50 for cytotoxicity against African green monkey Vero cells to EC50 for antiviral activity against Zika virus RNA-dependent RNA polymerase infected in African green monkey Vero cells. As to conditions: read-out: Ratio CC50/EC50. It is filed as toxicity, cell-based.
A short description of series [11]: Inhibition of DENV RNA polymerase. Details: species or system Dengue virus.
Series [12] relates to dengue virus type 2. As to the kind of experiment: Antiviral activity against DENV-2 RNA-dependent RNA polymerase infected in African green monkey Vero cells assessed as reduction in viral replication incubated for 2 days by qRT-PCR analysis. The series is classed as functional, organism-based. As to conditions: 48 h. (Real-time PCR tracks product formation cycle by cycle.)

For series [13], the system named is dengue virus type 3. As to the kind of experiment: Antiviral activity against DENV-3 RNA-dependent RNA polymerase infected in African green monkey Vero cells assessed as reduction in viral replication incubated for 2 days by qRT-PCR analysis. Conditions: 48 h. It is filed as functional, organism-based.
Series [14] in a line: Inhibition of DENV RNA-dependent RNA polymerase activity. On the set-up: species or system Dengue virus.
The subject of series [15] is dengue virus type 1. As to the kind of experiment: Antiviral activity against DENV-1 RNA-dependent RNA polymerase infected in African green monkey Vero cells assessed as reduction in viral replication incubated for 2 days by qRT-PCR analysis. It is filed as functional, organism-based. Conditions: 48 h.
Series [16] can be described thus: Toxicity in rat assessed as animal survival at 15 to 30 mg/kg, iv measured for 7 days. The series is classed as organism-based. Conditions: in vivo, dose 15-30 mg/kg, time 7 day, read-out: Activity.
The subject of series [17] is dengue virus type 4. As to the kind of experiment: Antiviral activity against DENV-4 RNA-dependent RNA polymerase infected in African green monkey Vero cells assessed as reduction in viral replication incubated for 2 days by qRT-PCR analysis. The series is classed as functional, organism-based. As to conditions: 48 h.
Series [18] can be described thus: Binding affinity to DENV-2 RNA-dependent RNA polymerase assessed as dissociation constant using GTP as substrate. Details: species or system dengue virus type 2.
The test system of series [19] is dengue virus type 2. As to the kind of experiment: Antiviral activity against DENV-2. It is filed as functional, organism-based.
Series [20] deals with dengue virus type 1. As to the kind of experiment: Antiviral activity against DENV-1 infected hamster BHK-21 cells assessed as reduction in viral replication incubated for 4 hrs. The series is classed as functional, organism-based.
The subject of series [21] is dengue virus type 4. As to the kind of experiment: Antiviral activity against DENV-4 infected hamster BHK-21 cells assessed as reduction in viral replication incubated for 4 hrs. The series is classed as functional, organism-based.
Series [22] has as its system dengue virus type 3. As to the kind of experiment: Antiviral activity against DENV-3 infected hamster BHK-21 cells assessed as reduction in viral replication incubated for 4 hrs. It is filed as functional, organism-based.
Series [23] concerns dengue virus type 2. As to the kind of experiment: Antiviral activity against DENV-2 infected hamster BHK-21 cells assessed as reduction in viral replication incubated for 4 hrs. The series is classed as functional, organism-based.
The subject of series [24] is dengue virus type 2. As to the kind of experiment: Antiviral activity against DENV-2 incubated for 72 hrs by MTT assay. The series is classed as functional, organism-based.
For series [25], the system named is dengue virus type 2. As to the kind of experiment: Antiviral activity against DENV-2 NS5 infected in African green monkey Vero cells. The series is classed as functional, organism-based.
Series [26] can be described thus: Inhibition of DENV-3 full length NS5/RNA-dependent RNA polymerase. Details: species or system dengue virus type 3.
Series [27] deals with dengue virus type 3. As to the kind of experiment: Antiviral activity against DENV-3 NS5 infected in African green monkey Vero cells. It is filed as functional, organism-based.
Series [28] deals with dengue virus type 1. As to the kind of experiment: Antiviral activity against DENV-1 NS5 infected in African green monkey Vero cells. The series is classed as functional, organism-based.
Series [29] deals with NS5 (Zika virus, UniProt A0A143MHK7). As to the kind of experiment: Inhibition of Zika virus RNA-dependent RNA polymerase.
NS5, sequence (A0A143MHK7 whole entry): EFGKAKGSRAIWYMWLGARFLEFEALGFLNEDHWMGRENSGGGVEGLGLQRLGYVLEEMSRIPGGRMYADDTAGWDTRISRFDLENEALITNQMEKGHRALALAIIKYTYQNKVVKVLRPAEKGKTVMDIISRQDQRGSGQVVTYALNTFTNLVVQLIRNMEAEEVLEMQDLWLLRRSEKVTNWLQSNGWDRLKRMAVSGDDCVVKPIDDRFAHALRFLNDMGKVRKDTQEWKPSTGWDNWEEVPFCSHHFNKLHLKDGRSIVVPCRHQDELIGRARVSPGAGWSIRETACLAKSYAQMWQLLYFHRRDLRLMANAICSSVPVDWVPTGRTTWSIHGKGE
For series [30], the system named is Dengue virus. As to the kind of experiment: Antiviral activity against DENV. The series is classed as functional, organism-based.
Series [31] concerns Zika virus. As to the kind of experiment: Antiviral activity against Zika virus. The series is classed as functional, organism-based.
Series [32] relates to dengue virus type 2. As to the kind of experiment: Antiviral activity against DENV-2 RNA-dependent RNA polymerase. The series is classed as functional, organism-based.

As usually defined, the CC50 is the concentration that lowers cell viability or growth by half. For the molecule `OC[C@H]1O[C@@H](n2c3ccc(Cl)cc3c3c(-c4ccco4)ncnc32)[C@H](O)[C@@H]1O`, the results for the CC50 in [1] and in [2] were 0.17 µM and 1.56 µM, respectively.
A word on the EC50: it is the concentration giving half of the maximal effect. The molecule `C#C[C@]1(O)[C@H](n2ccc(=O)[nH]c2=O)O[C@](F)(CO[P@](=O)(N[C@@H](C)C(=O)OC(C)C)Oc2ccccc2)[C@H]1O` showed an EC50 in [3] of 0.37 µM.
Broadly, the IC50 is the point on the concentration scale where inhibition reaches its midpoint. As for `COc1nc(N)ncc1-c1cn(COCCO)cn1`, the half-inhibitory concentration (IC50) was found to be 8.4 µM in series [4] and 1.7 µM in [5]. Moreover, the EC50 in series [6] was determined as 0.057 µM.
In general, Kd refers to a measure of binding affinity in units of concentration. As for `Cc1ccc(C2N(c3ccccc3)CC3=C(CC(C)(C)CC3=O)N2c2ccccc2)cc1` (configuration not stated), the Kd in [7] was 0.9 µM.
Turning to `O=C(NC(=S)Nc1ccc(N2CCN(C(=O)c3cccs3)CC2)cc1)c1sc2ccccc2c1Cl`, in series [8], the CC50 at 4 h stood at 19.4 µM. This molecule had an EC50 in [9] of 0.094 µM. In addition, in series [10], the selectivity ratio was 206.
With `C[C@@]1(O)[C@H](O)[C@@H](CO)O[C@H]1n1ccc(N)nc1=O`, the IC50 in series [11] was 11.2 µM; in series [14] it was 19.3 µM. For the same molecule, the EC50 in series [12] was 2.8 µM; in series [13] it was 2.4 µM; in [15], 2.9 µM; in [17] it was 2.6 µM. Further, the survival at 168 h in series [16] turned out to be 60%.
With `CN1CCN(c2ccc(C(=O)Nc3n[nH]c4ccc(Cc5cc(F)cc(F)c5)cc34)c(NC3CCOCC3)c2)CC1` [ENTRECTINIB], the Kd in [18] amounted to 166 µM. In series [19], this molecule gave an EC50 of 2.43 µM.
In the case of IVERMECTIN, the IC50 was determined as 2.32 µM in series [20], 1.9 µM in [21], 1.66 µM in series [22] and 2.08 µM in series [23].
Turning to `CN[C@@H]1CC[C@@H]2CN(c3c(F)c(N)c4c(=O)c(C(=O)O)cn(C5CC5)c4c3F)C[C@@H]21`, the EC50 in series [24] stood at 9.2 µM.
As to `CC(=O)Oc1ccc2oc(=O)sc2c1`, the EC50 in series [25] worked out at 6 µM; in [27], 29.4 µM; in [28], 29.5 µM. Further, the IC50 in series [26] amounted to 287 µM.
With `Nc1ncnc2c1c(-c1cc3ccccc3o1)cn2[C@@H]1O[C@H](CO)[C@@H](O)[C@H]1O`, inhibition in series [29] was half-maximal at 0.5 µM (IC50). In addition, the results for the EC50 in series [30] and in series [31] were 13 µM and 2.2 µM, respectively.
`CNC1CN(c2c(F)c(N)c3c(=O)c(C(=O)O)cn(C4CC4)c3c2Cl)CC1OC` (configuration not stated) showed a concentration giving a half-maximal response (EC50) in [32] of 3.9 µM.
